Laboratory results from publication PMC4535380, “Overproduction of pro-transglutaminase from Streptomyces hygroscopicus in Yarrowia lipolytica and its biochemical characterization” (BMC Biotechnology, 2015).
Read-outs that look alike come from different tables or passages of the source. Peptide text beside a SMILES is read from it. * marks the point of attachment. Cbz = O=C(OCc1ccccc1)*

Experiments:
Type in all cases: biochemical, Streptomyces hygroscopicus
[1] = test system: T1, activated pro-TGase; assay: colorimetric hydroxamate assay at […] nm, Lineweaver-Burk; details: hydroxylamine co-substrate (assay b48), 50 mmol/L Tris-HCl pH 6.0; substrate 6-30 mmol/L (below Km); dispase-activated; read-out: N355Q
T1 construct: pro-TGase behind XPR2 pre signal, secreted by Yarrowia lipolytica Po1h (pINA1297), N-glycosylated; no tag mentioned

[2] = test system: T1, activated pro-TGase; assay: as above; details: hydroxylamine co-substrate (assay b48), 50 mmol/L Tris-HCl pH 6.0; substrate 6-30 mmol/L (below Km); dispase-activated; read-out: N160Q/N355Q
[3] = test system: T1, activated pro-TGase; assay: as above; details: hydroxylamine co-substrate (assay b48), 50 mmol/L Tris-HCl pH 6.0; substrate 6-30 mmol/L (below Km); dispase-activated; read-out: N160Q
[4] = test system: T2, NC(=O)CC[C@H](NC(=O)OCc1ccccc1)C(=O)NCC(=O)O; assay: purified protein; details: hydroxylamine co-substrate (assay b48), 50 mmol/L Tris-HCl pH 6.0, substrate 6-30 mmol/L (below Km), dispase-activated, 37.0 °C
T2 construct: pro-TGase behind XPR2 pre signal, secreted by Yarrowia lipolytica Po1h (pINA1297), N-glycosylated; no tag mentioned

| Molecule | Km [1] [mM] | Km [2] [mM] | Km [3] [mM] | Km [4] [mM] | kcat [4] [s⁻¹] |
| --- | --- | --- | --- | --- | --- |
| NC(=O)CC[C@H](NC(=O)OCc1ccccc1)C(=O)NCC(=O)O [N-CBZ-Gln-Gly] (Cbz-Gln-Gly-OH) | 54.7 ± 2.1 | 48.4 ± 2.4 | 47 ± 1.5 |  |  |
| activated pro-TGase (wild type) (Streptomyces hygroscopicus) |  |  |  | 59.5 ± 2.3 | 31.5 ± 1.7 |
